Measurements published in paper PMC8804135 (Neurotherapeutics, 2021).
Numbered stars: 1 amine (or outer) side, 2 acyl side, 3 side chain; on linkers, the order of the positions; unused ones are H or OH. Bridge positions count the residues as written; N and C are the ends. Square brackets hold non-standard residues; d marks the D form. Ends that are not written are not given here. Peptide text beside a SMILES is read from it. dAbu(3S-yl) = C[C@@H]([C@@H](N[*:1])C(=O)[*:2])[*:3]; pGlu = O=C1CC[C@@H](C(=O)O)N1

Columns and labels:
Assay type in all cases: cell-based
[1] = target: T1, GAL1R (Homo sapiens, UniProt P47211); experiment: PathHunter eXpress β-arrestin recruitment assay, GAL1R; set-up: expressed in transfected cells; conditions: Table 3; CHO-K1 cells co-expressing GAL1R and β-arrestin 2; 10 µM to 5 nM; (average) ratio, (n) in cell = number of assays; NA = ratio above 1000
T1 sequence (P47211 1-349): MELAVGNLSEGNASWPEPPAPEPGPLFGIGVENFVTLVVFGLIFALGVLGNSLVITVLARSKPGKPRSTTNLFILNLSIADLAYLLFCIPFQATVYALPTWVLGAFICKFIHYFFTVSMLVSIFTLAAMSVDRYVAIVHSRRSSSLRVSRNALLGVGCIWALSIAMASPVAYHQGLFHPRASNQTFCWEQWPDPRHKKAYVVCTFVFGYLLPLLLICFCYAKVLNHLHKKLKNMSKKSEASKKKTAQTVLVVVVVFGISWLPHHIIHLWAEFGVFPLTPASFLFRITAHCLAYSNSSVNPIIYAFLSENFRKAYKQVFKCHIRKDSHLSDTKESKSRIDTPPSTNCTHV
Procedure: (§1) To evaluate the ability of lanthipeptides to recruit ß-arrestins via GAL1R or via GAL2R, we used the PathHunter® eXpress GAL1R, CHO-K1, β-arrestin GPCR Assay and the PathHunter® eXpress GAL2R, CHO-K1, β-arrestin, GPCR Assay from Eurofins-DiscoverX. The assays were performed according to the manufacturer’s instructions. Briefly, for one assay, CHO-K1 cells co-expressing GAL1R or GAL2R and β-arrestin (isoform 2) were diluted in AssayComplete™ Cell Plating Reagent, and 100 µl was seeded into each well of a 96-well plate. The plate was incubated at 37 °C, 5% CO2 in a humidified incubator. A serial 3 × dilution of the lanthipeptides in water was made (10 µM to 5 nM). After 48 h of incubation, 10 µl of the serial dilutions was applied to the cells in duplicate. The agonists were incubated for 90 min at 37 °C. Next, 55 µL of Working Detection Solution was added, and after 1 h of incubation at room temperature in the dark, the chemiluminescent signal was read with a Synergy HT Biotek reader.

[2] = target: T2, GAL2R (Homo sapiens, UniProt O43603); experiment: Fluo-4 Direct calcium assay (Ca efflux) in HEK293 cells overexpressing GAL2R; conditions: Table 3; HEK293 cells stably overexpressing GAL2R; Fluo-4, from 10 µM; (average) ratio, (n) in cell = number of assays; NA = ratio above 1000
T2 sequence (O43603 1-387): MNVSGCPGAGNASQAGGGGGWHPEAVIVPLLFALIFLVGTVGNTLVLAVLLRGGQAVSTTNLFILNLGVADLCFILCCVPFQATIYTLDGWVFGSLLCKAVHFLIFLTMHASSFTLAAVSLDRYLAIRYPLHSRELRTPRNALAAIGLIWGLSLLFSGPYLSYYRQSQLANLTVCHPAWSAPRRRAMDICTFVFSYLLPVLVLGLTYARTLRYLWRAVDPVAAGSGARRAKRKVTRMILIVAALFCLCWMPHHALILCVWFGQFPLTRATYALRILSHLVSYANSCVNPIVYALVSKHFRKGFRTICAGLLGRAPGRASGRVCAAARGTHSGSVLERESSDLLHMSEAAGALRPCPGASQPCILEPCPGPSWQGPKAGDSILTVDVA
Procedure: Calcium efflux was measured by using a Fluo-4 Direct Calcium Assay purchased from Thermo Fisher Scientific. HEK293 cells with stable overexpression of GAL2R (HEKR2) (kindly provided by Harald Dargatz, Molecular, Cellular and Pharmacobiology Section, Institute of Pharmaceutical Biology, University of Bonn, 53,115 Bonn, Germany) were used for analysis of the lanthipeptides. HEKR2 cells were seeded in a 96-well plate and grown overnight in DMEM supplemented with 10% FBS, 1% penicillin–streptomycin, 100 µg/ml Normocin, and 500 µg/ml G418 at 37 °C, 5% CO2 in a humidified incubator.
The next day, when the cells were nearly confluent, an equal amount of 2 × Fluo-4 Direct™ calcium reagent loading solution, containing 5 mM probenecid, was added to the wells, and the plate was incubated for 1 h at 37 °C. A serial 3 × dilution of the agonist compound in water was made, and 10 µl of the serial dilutions was applied to the cells in duplicate. The starting concentration of agonist in the assay was 10 µM. After 1–2 h of incubation at room temperature, the fluorescence was measured with excitation at 485/20 nm and emission at 528/20 nm with a Synergy HT Biotek reader.

[3] = target: T1, GAL1R; experiment: Label-free dynamic mass redistribution assay, SY5Y-R1 cells; set-up: expressed in transfected cells; conditions: GAL1R-expressing SH-SY5Y cells; 1.6 nM to 5 µM
Procedure: SH-SY5Y cells stably expressing low levels of either human GAL1R (SY5Y-R1) or GAL2R (SY5Y-R2) and HEK293 cells expressing human GAL3R (HEK-R3) were seeded in EnSpire LFC-[…] well plates (Perkin Elmer) at a concentration of 12,000 cells per well and cultured overnight at 37 °C and 5% CO2. The medium was aspired, and the cells were washed four times with Hank’s balanced salt solution (HBSS) (+ calcium, + magnesium) supplemented with HEPES (20 mM), and the final volume was adjusted to 30 µl per well. The plate was allowed to equilibrate to assay temperature for 1 h in the EnSpire multimode reader (Perkin Elmer). Galanin-(1–30) (GL Biochem) was dissolved and diluted in water. […] A baseline read was first generated by taking 4 measurements before ligands were added. The plate was measured between 30 and 70 repeats, and each treatment was performed in triplicate. […] EC50 values were calculated using Prism 8.2.0 (GraphPad Software Inc.). The values are provided as means of all independent experiments.

[4] = target: T1, GAL1R; experiment: cAMP Hunter eXpress GAL1R CHO-K1 GPCR assay (inhibition of forskolin-induced cAMP); set-up: expressed in transfected cells; conditions: Table 3; CHO-K1 cells expressing GAL1R; 20 µM forskolin; 10 µM to 5 nM; (average) ratio, (n) in cell = number of assays; NA = ratio above 1000
Procedure: To evaluate the ability of lanthipeptides to […] via GAL1R signaling, we used the cAMP Hunter™ eXpress GAL1R CHO-K1 GPCR Assay from Eurofins-DiscoverX. The assay was performed according to the manufacturer’s instructions. Briefly, for one assay, CHO-K1 cells expressing GAL1R were diluted in AssayComplete™ Cell Plating 2 Reagent, and 100 µl was seeded into each well of a 96-well plate. The plate was incubated at 37 °C, 5% CO2 in a humidified incubator. After 24 h of incubation, the media was aspirated, and 45 µl cell assay buffer/antibody mixture was added to all wells. […] Fifteen µl of the serial dilutions was applied in duplicates to the cells. The concentration of forskolin in the assay was 20 µM. The agonists were incubated for 30 min at 37 °C. Next, 15 µL Antibody Solution and 60 μL cAMP Working Detection Solution were added, and the plate was incubated for 1 h in the dark at room temperature. Finally, 60 μL cAMP Solution A was added and, after 3 h of incubation in the dark at room temperature, the chemiluminescent signal was read with a Synergy HT Biotek reader.

[5] = target: T2, GAL2R; experiment: PathHunter eXpress β-arrestin recruitment assay, GAL2R; set-up: expressed in transfected cells; conditions: Table 3; CHO-K1 cells co-expressing GAL2R and β-arrestin 2; 10 µM to 5 nM; (average) ratio, (n) in cell = number of assays; NA = ratio above 1000
Procedure: as §1

| EC50 ratios to Gal-(1-15), GAL1R ß-Arrestin [1] | EC50 ratios to Gal-(1-15), GAL2R Ca-efflux [2] | Stimulation of GAL1R, DMR in SY5YR1 cells [3] | EC50 ratios to Gal-(1-15), GAL2R ß-Arrestin [5] | Compound | EC50 ratios to Gal-(1-15), GAL1R cAMP [4] |
| --- | --- | --- | --- | --- | --- |
| 18.0 (1) | 4.7 (1) |  | 6.2 (1) | GWNLNAAGYLLGPTAVC (also: sidechain bridge or staple (positions not given here)) [Variant M85, methyllanthionine-containing galanin variant produced in L. lactis] | 11.6 (1) |
| 3 (1) | 1.3 (1) |  | 1.5 (1) | [pGlu]WNLNAAGYLLGATAVC (also: sidechain bridge or staple (positions not given here)) [Variant M91, pyroglutamate- and methyllanthionine-containing galanin variant] | NA (1) (NA is not active; ratios above 1000 were considered to be not active) |
| 9.6 (1) | 1.0 (1) |  | 0.5 (1) | [pGlu]WNLNAAGYLLGATAVGCHR (also: sidechain bridge or staple (positions not given here)) [Variant M76b, pyroglutamate- and methyllanthionine-containing galanin variant] | 12.2 (1) |
| 123 (1) | 7.3 (1) |  | 78 (1) | [pGlu]WNLNAAGYLLGPHTVGCHR (also: sidechain bridge or staple (positions not given here)) [Variant M83, pyroglutamate- and methyllanthionine-containing galanin variant] | NA (1) (NA is not active; ratios above 1000 were considered to be not active) |
| 260 (1) | 1.9 (2) |  | 4.8 (1) | [pGlu]WNLNAAGYLLGPTAVC (also: sidechain bridge or staple (positions not given here)) [Variant M87, pyroglutamate- and methyllanthionine-containing galanin variant] | NA (1) (NA is not active; ratios above 1000 were considered to be not active) |

| Compound | EC50 ratios to Gal-(1-15), GAL1R ß-Arrestin [1] | EC50 ratios to Gal-(1-15), GAL2R Ca-efflux [2] | Stimulation of GAL1R, DMR in SY5YR1 cells [3] | EC50 ratios to Gal-(1-15), GAL2R ß-Arrestin [5] | EC50 ratios to Gal-(1-15), GAL1R cAMP [4] |
| --- | --- | --- | --- | --- | --- |
| CC(C)C[C@H](NC(=O)[C@H](CC(C)C)NC(=O)[C@H](Cc1ccc(O)cc1)NC(=O)CNC(=O)[C@H](C)NC(=O)[C@H](C)NC(=O)[C@H](CC(N)=O)NC(=O)[C@H](CC(C)C)NC(=O)[C@H](CC(N)=O)NC(=O)[C@H](Cc1c[nH]c2ccccc12)NC(=O)[C@@H]1CCC(=O)N1)C(=O)N[C@@H](C)C(=O)N[C@H]1C(=O)N[C@@H](Cc2c[nH]cn2)C(=O)N[C@@H](C)C(=O)N[C@H](C(=O)NCC(=O)N[C@@H](CC(N)=O)C(=O)N[C@@H](Cc2c[nH]cn2)C(=O)N[C@@H](CCCNC(=N)N)C(=O)O)CS[C@H]1C [Variant M50b] ([pGlu]WNLNAAGYLLA[dAbu(3S-yl)]HACGNHR-OH; thioether 13-16; C-terminus assumed) | NA (1) (NA is not active; ratios above 1000 were considered to be not active) | 2.8 (3) | stimulate GAL2R only, not GAL1R | 4.7 (3) | NA (2) (NA is not active; ratios above 1000 were considered to be not active) |
| [pGlu]WNLNAAGYLLGATAVCNH (also: sidechain bridge or staple (positions not given here)) [Variant M54tr, pyroglutamate- and methyllanthionine-containing galanin variant] | NA (1) (NA is not active; ratios above 1000 were considered to be not active) | 1.2 (2) |  | 1 (1) | 16 (1) |
